From PubChem BioAssay (NCI)
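Test compounds were applied to cells in 96-well plates for 48 hours at 5 doses. The concentration for full growth arrest is given as TGI.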

Tests used:
Experiment in all cases: NCI tumour cell line growth inhibition, 48 h
786-0 renal = tested on: 786-0 renal
A498 renal = tested on: A498 renal
A549 NSCLC = tested on: A549 NSCLC
ACHN renal = tested on: ACHN renal
BT-549 breast = tested on: BT-549 breast
CAKI-1 renal = tested on: CAKI-1 renal
CCRF-CEM leukemia = tested on: CCRF-CEM leukemia
COLO 205 colon = tested on: COLO 205 colon
DU-145 prostate = tested on: DU-145 prostate
EKVX NSCLC = tested on: EKVX NSCLC
HCT-116 colon = tested on: HCT-116 colon
HCT-15 colon = tested on: HCT-15 colon
HL-60(TB) leukemia = tested on: HL-60(TB) leukemia
HOP-62 NSCLC = tested on: HOP-62 NSCLC
HS 578T breast = tested on: HS 578T breast
HT29 colon = tested on: HT29 colon
IGROV1 ovarian = tested on: IGROV1 ovarian
K-562 leukemia = tested on: K-562 leukemia
KM12 colon = tested on: KM12 colon
LOX IMVI melanoma = tested on: LOX IMVI melanoma
M14 melanoma = tested on: M14 melanoma
MALME-3M melanoma = tested on: MALME-3M melanoma
MDA-MB-231 breast = tested on: MDA-MB-231 breast
MDA-MB-435 = tested on: MDA-MB-435
MDA-N = tested on: MDA-N
MOLT-4 leukemia = tested on: MOLT-4 leukemia
NCI-H226 lung = tested on: NCI-H226 lung
NCI-H23 lung = tested on: NCI-H23 lung
NCI-H522 lung = tested on: NCI-H522 lung
NCI/ADR-RES ovarian = tested on: NCI/ADR-RES ovarian
OVCAR-3 ovarian = tested on: OVCAR-3 ovarian
OVCAR-4 ovarian = tested on: OVCAR-4 ovarian
OVCAR-5 ovarian = tested on: OVCAR-5 ovarian
OVCAR-8 ovarian = tested on: OVCAR-8 ovarian
PC-3 prostate = tested on: PC-3 prostate
RPMI-8226 leukemia = tested on: RPMI-8226 leukemia
RXF 393 renal = tested on: RXF 393 renal
SF-268 CNS = tested on: SF-268 CNS
SF-295 CNS = tested on: SF-295 CNS
SK-MEL-2 melanoma = tested on: SK-MEL-2 melanoma
SK-MEL-28 melanoma = tested on: SK-MEL-28 melanoma
SK-MEL-5 melanoma = tested on: SK-MEL-5 melanoma
SK-OV-3 ovarian = tested on: SK-OV-3 ovarian
SN12C renal = tested on: SN12C renal
SNB-19 CNS = tested on: SNB-19 CNS
SNB-75 CNS = tested on: SNB-75 CNS
SW-620 colon = tested on: SW-620 colon
T-47D breast = tested on: T-47D breast
TK-10 renal = tested on: TK-10 renal
U251 CNS = tested on: U251 CNS
UACC-257 melanoma = tested on: UACC-257 melanoma
UACC-62 melanoma = tested on: UACC-62 melanoma
UO-31 renal = tested on: UO-31 renal
HCC-2998 colon = tested on: HCC-2998 colon
HOP-92 NSCLC = tested on: HOP-92 NSCLC
MCF7 breast = tested on: MCF7 breast
NCI-H460 lung = tested on: NCI-H460 lung
SF-539 CNS = tested on: SF-539 CNS

`Cn1/c(=N\S(=O)(=O)c2ccccc2)n(S(=O)(=O)c2ccccc2)c2ccccc21` was tested, and the TGI (786-0 renal) was greater than 100 µM, the TGI (A498 renal) was greater than 100 µM and the TGI (A549 NSCLC) was greater than 100 µM. The TGI (ACHN renal) was greater than 100 µM, the TGI (BT-549 breast) was greater than 100 µM and the TGI (CAKI-1 renal) was greater than 100 µM. The TGI (CCRF-CEM leukemia) was 83.3 µM, the TGI (COLO 205 colon) was greater than 100 µM and the TGI (DU-145 prostate) was greater than 100 µM. For the same compound, the TGI (EKVX NSCLC) was greater than 100 µM, the TGI (HCT-116 colon) was greater than 100 µM and the TGI (HCT-15 colon) was greater than 100 µM. The TGI (HL-60(TB) leukemia) was 7.16 µM, the TGI (HOP-62 NSCLC) was greater than 100 µM and the TGI (HS 578T breast) was greater than 100 µM. It also gave a TGI (HT29 colon) greater than 100 µM, a TGI (IGROV1 ovarian) greater than 100 µM and a TGI (K-562 leukemia) greater than 100 µM. For the same compound, the TGI (KM12 colon) was greater than 100 µM, the TGI (LOX IMVI melanoma) was greater than 100 µM and the TGI (M14 melanoma) was greater than 100 µM. The TGI (MALME-3M melanoma) was greater than 100 µM, the TGI (MDA-MB-231 breast) was greater than 100 µM and the TGI (MDA-MB-435) was greater than 100 µM. The TGI (MDA-N) was greater than 100 µM, the TGI (MOLT-4 leukemia) was greater than 100 µM and the TGI (NCI-H226 lung) was greater than 100 µM. It also gave a TGI (NCI-H23 lung) greater than 100 µM, a TGI (NCI-H522 lung) greater than 100 µM and a TGI (NCI/ADR-RES ovarian) greater than 100 µM. It also gave a TGI (OVCAR-3 ovarian) greater than 100 µM, a TGI (OVCAR-4 ovarian) greater than 100 µM and a TGI (OVCAR-5 ovarian) greater than 100 µM. It also gave a TGI (OVCAR-8 ovarian) greater than 100 µM, a TGI (PC-3 prostate) greater than 100 µM and a TGI (RPMI-8226 leukemia) greater than 100 µM. For the same compound, the TGI (RXF 393 renal) was greater than 100 µM, the TGI (SF-268 CNS) was greater than 100 µM and the TGI (SF-295 CNS) was greater than 100 µM. The TGI (SK-MEL-2 melanoma) was greater than 100 µM, the TGI (SK-MEL-28 melanoma) was greater than 100 µM and the TGI (SK-MEL-5 melanoma) was greater than 100 µM. The TGI (SK-OV-3 ovarian) was greater than 100 µM, the TGI (SN12C renal) was greater than 100 µM and the TGI (SNB-19 CNS) was greater than 100 µM. It also gave a TGI (SNB-75 CNS) greater than 100 µM, a TGI (SW-620 colon) greater than 100 µM and a TGI (T-47D breast) greater than 100 µM. It also gave a TGI (TK-10 renal) greater than 100 µM, a TGI (U251 CNS) greater than 100 µM and a TGI (UACC-257 melanoma) greater than 100 µM. It also gave a TGI (UACC-62 melanoma) greater than 100 µM and a TGI (UO-31 renal) greater than 100 µM.

Work on `O=c1[nH]c(Nc2cc(Cl)cc(Cl)c2)nc2nc[nH]c12` yielded a TGI (786-0 renal) greater than 75 µM, a TGI (A549 NSCLC) greater than 75 µM and a TGI (ACHN renal) greater than 75 µM. For the same compound, the TGI (BT-549 breast) was greater than 75 µM, the TGI (CAKI-1 renal) was greater than 75 µM and the TGI (CCRF-CEM leukemia) was greater than 75 µM. For the same compound, the TGI (COLO 205 colon) was greater than 75 µM, the TGI (DU-145 prostate) was greater than 75 µM and the TGI (EKVX NSCLC) was greater than 75 µM. For the same compound, the TGI (HCC-2998 colon) was greater than 75 µM, the TGI (HCT-116 colon) was greater than 75 µM and the TGI (HCT-15 colon) was greater than 75 µM. The TGI (HOP-62 NSCLC) was greater than 75 µM, the TGI (HOP-92 NSCLC) was greater than 75 µM and the TGI (HS 578T breast) was 68.5 µM. For the same compound, the TGI (HT29 colon) was greater than 75 µM, the TGI (IGROV1 ovarian) was greater than 75 µM and the TGI (K-562 leukemia) was greater than 75 µM. It also gave a TGI (KM12 colon) greater than 75 µM, a TGI (LOX IMVI melanoma) greater than 75 µM and a TGI (M14 melanoma) greater than 75 µM. For the same compound, the TGI (MALME-3M melanoma) was greater than 75 µM, the TGI (MCF7 breast) was greater than 75 µM and the TGI (MDA-MB-231 breast) was greater than 75 µM. For the same compound, the TGI (MDA-MB-435) was greater than 75 µM, the TGI (MDA-N) was greater than 75 µM and the TGI (MOLT-4 leukemia) was greater than 75 µM. It also gave a TGI (NCI-H226 lung) greater than 75 µM, a TGI (NCI-H23 lung) greater than 75 µM and a TGI (NCI-H460 lung) greater than 75 µM. The TGI (NCI/ADR-RES ovarian) was greater than 75 µM, the TGI (OVCAR-3 ovarian) was greater than 75 µM and the TGI (OVCAR-4 ovarian) was greater than 75 µM. For the same compound, the TGI (OVCAR-5 ovarian) was greater than 75 µM, the TGI (OVCAR-8 ovarian) was greater than 75 µM and the TGI (PC-3 prostate) was greater than 75 µM. The TGI (RPMI-8226 leukemia) was greater than 75 µM, the TGI (RXF 393 renal) was greater than 75 µM and the TGI (SF-268 CNS) was greater than 75 µM. The TGI (SF-295 CNS) was greater than 75 µM, the TGI (SF-539 CNS) was greater than 75 µM and the TGI (SK-MEL-2 melanoma) was greater than 75 µM. It also gave a TGI (SK-MEL-5 melanoma) greater than 75 µM, a TGI (SK-OV-3 ovarian) greater than 75 µM and a TGI (SN12C renal) greater than 75 µM. The TGI (SNB-19 CNS) was greater than 75 µM, the TGI (SNB-75 CNS) was greater than 75 µM and the TGI (SW-620 colon) was greater than 75 µM. The TGI (T-47D breast) was greater than 75 µM, the TGI (TK-10 renal) was greater than 75 µM and the TGI (U251 CNS) was greater than 75 µM. It also gave a TGI (UACC-257 melanoma) greater than 75 µM, a TGI (UACC-62 melanoma) greater than 75 µM and a TGI (UO-31 renal) greater than 75 µM.
